Experimental data taken from patent US8372967B2, “Compounds and methods for modulating expression of GCCR” (Isis Pharmaceuticals, Inc., priority 2006, dated 2013).
Strand notation (5' to 3'): a small letter for the sugar, then the base; units joined by * are phosphorothioate-linked, units joined directly phosphodiester-linked; [ ] holds rarer units or linkages, { } end groups; capitals alone tell only the bases. e = 2'-O-(2-methoxyethyl) (MOE); [5mC] = 5-methylcytosine; d = 2'-deoxy (DNA)

test system: SGLT2 mRNA; experiment: SGLT2 mRNA in kidney of Balb/c mice, twenty 1-10-1 MOE gapmers, PPS 534 and PPS 553 (Table 74); type: in vivo, mouse; conditions: i.p. 350 nmol/kg twice per week for two weeks, primer probe set 534, normalized to cyclophilin
Procedure: Twenty 1-10-1 MOE gapmers that are complementary to human/monkey/mouse/rat SGLT2 were designed, synthesized and tested in vivo for suppression of SGLT2 mRNA levels in kidney. Data are averages from two experiments in which male 6-week old Balb/c mice were administered intraperitoneal injections of 350 nmol/kg of oligonucleotide, twice per week, over a period of two weeks (a total of four injections). Mice were sacrificed 48 hours following the last administration and evaluated for SGLT2 mRNA levels in kidney. SGLT2 mRNA levels were determined by quantitative real-time PCR analysis according to standard procedures, using two different PCR primer probe sets, primer probe set (PPS) 534 and PPS 553. SGLT2 mRNA levels were normalized to cyclophilin mRNA levels, which were also measured by quantitative real-time PCR.

Substance | % change in SGLT2 mRNA vs saline [% Saline]
370717 (antisense eT*dA*dG*d[5mC]*d[5mC]*dA*d[5mC]*d[5mC]*dA*dA*d[5mC]*eT) [compound 370717] | −84.4
379684 (antisense eT*dG*dT*d[5mC]*dA*dG*d[5mC]*dA*dG*dG*dA*eT) [compound 379684] | −45.0
379685 (antisense eT*dG*dA*d[5mC]*d[5mC]*dA*dG*d[5mC]*dA*dG*dG*eA) [compound 379685] | −10.3
379686 (antisense eA*d[5mC]*d[5mC]*dA*d[5mC]*dA*dA*dG*d[5mC]*d[5mC]*dA*eA) [compound 379686] | −71.9
379687 (antisense eG*dA*dT*dG*dT*dT*dG*d[5mC]*dT*dG*dG*e[5mC]) [compound 379687] | −47.1
379688 (antisense e[5mC]*d[5mC]*dA*dA*dG*d[5mC]*d[5mC]*dA*d[5mC]*dT*dT*eG) [compound 379688] | −62.6
379689 (antisense eA*dG*dA*dG*d[5mC]*dG*d[5mC]*dA*dT*dT*d[5mC]*e[5mC]) [compound 379689] | −17.5
379690 (antisense eA*d[5mC]*dA*dG*dG*dT*dA*dG*dA*dG*dG*e[5mC]) [compound 379690] | −18.9
379691 (antisense eA*dG*dA*dT*d[5mC]*dT*dT*dG*dG*dT*dG*eA) [compound 379691] | −35.0

same assay, conditions: i.p. 350 nmol/kg twice per week for two weeks, primer probe set 553, normalized to cyclophilin

Substance | % change in SGLT2 mRNA vs saline [% Saline]
370717 (antisense eT*dA*dG*d[5mC]*d[5mC]*dA*d[5mC]*d[5mC]*dA*dA*d[5mC]*eT) [compound 370717] | −84.3
379684 (antisense eT*dG*dT*d[5mC]*dA*dG*d[5mC]*dA*dG*dG*dA*eT) [compound 379684] | −43.2
379685 (antisense eT*dG*dA*d[5mC]*d[5mC]*dA*dG*d[5mC]*dA*dG*dG*eA) [compound 379685] | −20.5
379686 (antisense eA*d[5mC]*d[5mC]*dA*d[5mC]*dA*dA*dG*d[5mC]*d[5mC]*dA*eA) [compound 379686] | −75.1
379687 (antisense eG*dA*dT*dG*dT*dT*dG*d[5mC]*dT*dG*dG*e[5mC]) [compound 379687] | −52.1
379688 (antisense e[5mC]*d[5mC]*dA*dA*dG*d[5mC]*d[5mC]*dA*d[5mC]*dT*dT*eG) [compound 379688] | −70.4
379689 (antisense eA*dG*dA*dG*d[5mC]*dG*d[5mC]*dA*dT*dT*d[5mC]*e[5mC]) [compound 379689] | −30.4
379690 (antisense eA*d[5mC]*dA*dG*dG*dT*dA*dG*dA*dG*dG*e[5mC]) [compound 379690] | −22.5
379691 (antisense eA*dG*dA*dT*d[5mC]*dT*dT*dG*dG*dT*dG*eA) [compound 379691] | −48.6

test system: PCSK9 mRNA; experiment: not given; type: cell-based, human; conditions: Hep3B cells, 100 nM, relative to untreated control cells

Substance | % Inhibition Range
400327 (antisense eG*eT*d[5mC]*d[5mC]*d[5mC]*d[5mC]*dA*dA*dA*dG*dT*d[5mC]*e[5mC]*e[5mC]) [compound 400327] | 30-40%
400330 (antisense e[5mC]*e[5mC]*dA*d[5mC]*dG*dT*dG*dG*dG*d[5mC]*dA*dG*e[5mC]*eA) [compound 400330] | 40-50%
400331 (antisense eG*e[5mC]*d[5mC]*dA*d[5mC]*dG*dT*dG*dG*dG*d[5mC]*dA*eG*e[5mC]) [compound 400331] | 30-40%
400352 (antisense e[5mC]*eA*d[5mC]*d[5mC]*d[5mC]*dT*d[5mC]*dA*d[5mC]*d[5mC]*d[5mC]*d[5mC]*e[5mC]*eA) [compound 400352] | 20-30%
400353 (antisense eA*e[5mC]*dA*d[5mC]*d[5mC]*d[5mC]*dT*d[5mC]*dA*d[5mC]*d[5mC]*d[5mC]*e[5mC]*e[5mC]) [compound 400353] | 10-20%

same assay, conditions: Hep3B cells, 100 nM, relative to untreated control cells, 0 = no reduction observed

Substance | % Inhib [%]
400327 (antisense eG*eT*d[5mC]*d[5mC]*d[5mC]*d[5mC]*dA*dA*dA*dG*dT*d[5mC]*e[5mC]*e[5mC]) [compound 400327] | 36
400330 (antisense e[5mC]*e[5mC]*dA*d[5mC]*dG*dT*dG*dG*dG*d[5mC]*dA*dG*e[5mC]*eA) [compound 400330] | 43
400331 (antisense eG*e[5mC]*d[5mC]*dA*d[5mC]*dG*dT*dG*dG*dG*d[5mC]*dA*eG*e[5mC]) [compound 400331] | 35
400352 (antisense e[5mC]*eA*d[5mC]*d[5mC]*d[5mC]*dT*d[5mC]*dA*d[5mC]*d[5mC]*d[5mC]*d[5mC]*e[5mC]*eA) [compound 400352] | 29
400353 (antisense eA*e[5mC]*dA*d[5mC]*d[5mC]*d[5mC]*dT*d[5mC]*dA*d[5mC]*d[5mC]*d[5mC]*e[5mC]*e[5mC]) [compound 400353] | 19

test system: PCSK9 mRNA; experiment: Dose-dependent antisense inhibition of PCSK9 in Hep3B cells, EC50 (Table 76); type: cell-based, human; conditions: 5 nM
Procedure: When cells reached appropriate confluency, they were treated with oligonucleotide using LIPOFECTIN® as described. […] Cells were treated and data were obtained in duplicate or triplicate. […] Cells were harvested 16-24 hours after oligonucleotide treatment.
Short antisense compounds targeted to a PCSK9 nucleic acid were tested in a dose response experiment Hep3B cells. After the treatment period, RNA was isolated from the cells and PCSK9 mRNA levels were measured by quantitative real-time PCR, as described herein. PCSK9 mRNA levels were normalized to cyclophilin mRNA levels, as measured by real-time PCR using a cyclophilin-specific primer probe set. Results are presented as percent inhibition of PCSK9, relative to untreated control cells. […] As illustrated in the following table, PCSK9 mRNA levels were reduced in a dose-dependent manner.

Substance | % Inhibition [%]
400327 (antisense eG*eT*d[5mC]*d[5mC]*d[5mC]*d[5mC]*dA*dA*dA*dG*dT*d[5mC]*e[5mC]*e[5mC]) [compound 400327] | 5
400330 (antisense e[5mC]*e[5mC]*dA*d[5mC]*dG*dT*dG*dG*dG*d[5mC]*dA*dG*e[5mC]*eA) [compound 400330] | 8
400331 (antisense eG*e[5mC]*d[5mC]*dA*d[5mC]*dG*dT*dG*dG*dG*d[5mC]*dA*eG*e[5mC]) [compound 400331] | 29
400352 (antisense e[5mC]*eA*d[5mC]*d[5mC]*d[5mC]*dT*d[5mC]*dA*d[5mC]*d[5mC]*d[5mC]*d[5mC]*e[5mC]*eA) [compound 400352] | 7
400353 (antisense eA*e[5mC]*dA*d[5mC]*d[5mC]*d[5mC]*dT*d[5mC]*dA*d[5mC]*d[5mC]*d[5mC]*e[5mC]*e[5mC]) [compound 400353] | 15

same assay, conditions: 10 nM

Substance | % Inhibition [%]
400327 (antisense eG*eT*d[5mC]*d[5mC]*d[5mC]*d[5mC]*dA*dA*dA*dG*dT*d[5mC]*e[5mC]*e[5mC]) [compound 400327] | 37
400330 (antisense e[5mC]*e[5mC]*dA*d[5mC]*dG*dT*dG*dG*dG*d[5mC]*dA*dG*e[5mC]*eA) [compound 400330] | 32
400331 (antisense eG*e[5mC]*d[5mC]*dA*d[5mC]*dG*dT*dG*dG*dG*d[5mC]*dA*eG*e[5mC]) [compound 400331] | 40
400352 (antisense e[5mC]*eA*d[5mC]*d[5mC]*d[5mC]*dT*d[5mC]*dA*d[5mC]*d[5mC]*d[5mC]*d[5mC]*e[5mC]*eA) [compound 400352] | 16
400353 (antisense eA*e[5mC]*dA*d[5mC]*d[5mC]*d[5mC]*dT*d[5mC]*dA*d[5mC]*d[5mC]*d[5mC]*e[5mC]*e[5mC]) [compound 400353] | 27

same assay, conditions: 20 nM

Substance | % Inhibition [%]
400327 (antisense eG*eT*d[5mC]*d[5mC]*d[5mC]*d[5mC]*dA*dA*dA*dG*dT*d[5mC]*e[5mC]*e[5mC]) [compound 400327] | 23
400330 (antisense e[5mC]*e[5mC]*dA*d[5mC]*dG*dT*dG*dG*dG*d[5mC]*dA*dG*e[5mC]*eA) [compound 400330] | 40
400331 (antisense eG*e[5mC]*d[5mC]*dA*d[5mC]*dG*dT*dG*dG*dG*d[5mC]*dA*eG*e[5mC]) [compound 400331] | 47
400352 (antisense e[5mC]*eA*d[5mC]*d[5mC]*d[5mC]*dT*d[5mC]*dA*d[5mC]*d[5mC]*d[5mC]*d[5mC]*e[5mC]*eA) [compound 400352] | 40
400353 (antisense eA*e[5mC]*dA*d[5mC]*d[5mC]*d[5mC]*dT*d[5mC]*dA*d[5mC]*d[5mC]*d[5mC]*e[5mC]*e[5mC]) [compound 400353] | 23

same assay, conditions: 40 nM

Substance | % Inhibition [%]
400327 (antisense eG*eT*d[5mC]*d[5mC]*d[5mC]*d[5mC]*dA*dA*dA*dG*dT*d[5mC]*e[5mC]*e[5mC]) [compound 400327] | 49
400330 (antisense e[5mC]*e[5mC]*dA*d[5mC]*dG*dT*dG*dG*dG*d[5mC]*dA*dG*e[5mC]*eA) [compound 400330] | 69
400331 (antisense eG*e[5mC]*d[5mC]*dA*d[5mC]*dG*dT*dG*dG*dG*d[5mC]*dA*eG*e[5mC]) [compound 400331] | 63
400352 (antisense e[5mC]*eA*d[5mC]*d[5mC]*d[5mC]*dT*d[5mC]*dA*d[5mC]*d[5mC]*d[5mC]*d[5mC]*e[5mC]*eA) [compound 400352] | 44
400353 (antisense eA*e[5mC]*dA*d[5mC]*d[5mC]*d[5mC]*dT*d[5mC]*dA*d[5mC]*d[5mC]*d[5mC]*e[5mC]*e[5mC]) [compound 400353] | 43

same assay, conditions: 80 nM

Substance | % Inhibition [%]
400327 (antisense eG*eT*d[5mC]*d[5mC]*d[5mC]*d[5mC]*dA*dA*dA*dG*dT*d[5mC]*e[5mC]*e[5mC]) [compound 400327] | 43
400330 (antisense e[5mC]*e[5mC]*dA*d[5mC]*dG*dT*dG*dG*dG*d[5mC]*dA*dG*e[5mC]*eA) [compound 400330] | 82
400331 (antisense eG*e[5mC]*d[5mC]*dA*d[5mC]*dG*dT*dG*dG*dG*d[5mC]*dA*eG*e[5mC]) [compound 400331] | 75
400352 (antisense e[5mC]*eA*d[5mC]*d[5mC]*d[5mC]*dT*d[5mC]*dA*d[5mC]*d[5mC]*d[5mC]*d[5mC]*e[5mC]*eA) [compound 400352] | 63
400353 (antisense eA*e[5mC]*dA*d[5mC]*d[5mC]*d[5mC]*dT*d[5mC]*dA*d[5mC]*d[5mC]*d[5mC]*e[5mC]*e[5mC]) [compound 400353] | 54

same assay, conditions: 160 nM

Substance | % Inhibition [%]
400327 (antisense eG*eT*d[5mC]*d[5mC]*d[5mC]*d[5mC]*dA*dA*dA*dG*dT*d[5mC]*e[5mC]*e[5mC]) [compound 400327] | 55
400330 (antisense e[5mC]*e[5mC]*dA*d[5mC]*dG*dT*dG*dG*dG*d[5mC]*dA*dG*e[5mC]*eA) [compound 400330] | 71
400331 (antisense eG*e[5mC]*d[5mC]*dA*d[5mC]*dG*dT*dG*dG*dG*d[5mC]*dA*eG*e[5mC]) [compound 400331] | 82
400352 (antisense e[5mC]*eA*d[5mC]*d[5mC]*d[5mC]*dT*d[5mC]*dA*d[5mC]*d[5mC]*d[5mC]*d[5mC]*e[5mC]*eA) [compound 400352] | 64
400353 (antisense eA*e[5mC]*dA*d[5mC]*d[5mC]*d[5mC]*dT*d[5mC]*dA*d[5mC]*d[5mC]*d[5mC]*e[5mC]*e[5mC]) [compound 400353] | 48
